Data taken from patent US8455500B2, “3-hydroxy-5-arylisoxazole derivative” (Mochida Pharmaceutical Co., Ltd., priority 2009, dated 2013).

Molecular target: T1, GPR40 of human origin (Homo sapiens, UniProt O14842)
T1 construct: expressed in transfected cells
Assay: Agonist action on GPR40 of human origin (Ca2+ fluorescence in a CHO cell strain stably expressing GPR40)
Format: cell-based
Settings: Ca2+ concentration fluctuation, fluorescence intensity
Description: A CHO cell strain stably expressing GPR40 of human origin was used to determine the agonist action of a subject compound. This cell strain was seeded in a clear bottom 96 well plate at 4×10^4 cells/100 μL/well. The cell strain was cultured in a CO2 incubator overnight using a Ham's F-12 medium containing a 10% fetal bovine serum, 100 U/mL penicillin, 0.1 mg/mL streptomycin, and 400 μg/mL Geneticin. Calcium 4 Assay Kit (Molecular Devices) was used as a fluorescent calcium indicator. One mL of 77 mg/mL probenecid (Invitrogen) was added to 100 mL of a calcium indicator solution to prepare a solution (loading solution) mixed with a 20 mM HEPES-containing Hanks' balanced salt solution (HBSS) in equal proportions. 200 μL of the loading solution was added to the cells from which the culture solution was removed, and the cells were cultured in a CO2 incubator for 1 hour. The subject compound was diluted with a 20 mM HEPES-containing HBSS and was added to the cells by 50 μL, and the fluctuation of the Ca^2+ concentration was measured by an intracellular ion analyzer. The EC50 value of the subject compound was calculated using the dose-response curve of fluorescence intensity variation.

T1 sequence (O14842 whole entry): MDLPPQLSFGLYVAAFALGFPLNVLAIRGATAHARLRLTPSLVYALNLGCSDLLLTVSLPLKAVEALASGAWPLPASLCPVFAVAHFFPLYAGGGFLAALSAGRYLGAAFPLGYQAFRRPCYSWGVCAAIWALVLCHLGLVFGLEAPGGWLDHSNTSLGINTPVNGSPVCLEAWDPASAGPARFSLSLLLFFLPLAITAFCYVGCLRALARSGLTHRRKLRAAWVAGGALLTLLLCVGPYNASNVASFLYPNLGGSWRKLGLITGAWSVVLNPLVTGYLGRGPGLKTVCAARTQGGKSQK

| Compound | EC50 [nM] |
| --- | --- |
| Cc1cc(OCC[C@@H](C)O)cc(C)c1-c1cccc2c1CCC2Oc1ccc(-c2cc(O)no2)cc1 (stereo partly drawn) [Example 36, 5-[4-[[4-[4-[(3R)-3-hydroxybutoxy]-2,6-dimethylphenyl]-2,3-dihydro-1H-inden-1-yl]oxy]phenyl]-1,2-oxazol-3-ol] | < 300 |
| Oc1cc(-c2ccc(OC3CCc4c(-c5ccc6cc[nH]c6c5)cccc43)cc2)on1 (stereo not drawn) [Example 35, 5-(4-(2,3-dihydro-4-(1H-indol-6-yl)-1H-inden-1-yloxy)phenyl)isoxazol-3-ol] | 300 to 3000 |
| Cc1c(COc2ccc(-c3cc(O)no3)cc2)cccc1-c1cnc(OCCC(C)(C)O)c(C)c1C [Example 46, 5-[4-[[3-[6-(3-hydroxy-3-methylbutoxy)-4,5-dimethylpyridin-3-yl]-2-methylphenyl]methoxy]phenyl]-1,2-oxazol-3-ol] | < 300 |
| Cc1cc(OCCC(C)(C)O)cc(C)c1-c1cccc(COc2ccc(-c3cc(O)no3)cc2)c1C [Example 45, 5-[4-[[3-[4-(3-hydroxy-3-methylbutoxy)-2,6-dimethylphenyl]-2-methylphenyl]methoxy]phenyl]-1,2-oxazol-3-ol] | < 300 |
| Cc1nc(OCCC(C)(C)O)ccc1-c1cccc(COc2ccc(-c3cc(O)no3)cc2)c1C [Example 39, 5-(4-((3-(6-(3-hydroxy-3-methylbutoxy)-2-methylpyridin-3-yl)-2-methylphenyl)methoxy)phenyl)isoxazol-3-ol] | < 300 |
| Cc1cc(OCCC(C)(C)O)nc(C)c1-c1cccc(COc2ccc(-c3cc(O)no3)cc2)c1C [Example 40, 5-(4-((3-(2,4-dimethyl-6-(3-hydroxy-3-methylbutoxy)pyridin-3-yl)-2-methylphenyl)methoxy)phenyl)isoxazol-3-ol] | < 300 |
| Cc1cc(OCCC(C)(C)O)ncc1-c1cccc(COc2ccc(-c3cc(O)no3)cc2)c1C [Example 38, 5-(4-((3-(6-(3-hydroxy-3-methylbutoxy)-4-methylpyridin-3-yl)-2-methylphenyl)methoxy)phenyl)isoxazol-3-ol] | < 300 |
| Oc1cc(-c2ccc(OC3CCc4c(OCc5ccccc5C(F)(F)F)cccc43)cc2)on1 (stereo not drawn) [Example 29, 5-(4-(2,3-dihydro-4-(2-(trifluoromethyl)benzyloxy)-1H-inden-1-yloxy)phenyl)isoxazol-3-ol] | 300 to 3000 |
| Oc1cc(-c2ccc(OC3CCc4c(-c5ccc6c(c5)OCCO6)cccc43)cc2)on1 (stereo not drawn) [Example 34, 5-(4-(2,3-dihydro-4-(1,4-benzodioxan-6-yl)-1H-inden-1-yloxy)phenyl)isoxazol-3-ol] | 300 to 3000 |
| Cc1cc(OCCCS(C)(=O)=O)cc(C)c1-c1cccc(COc2ccc(-c3cc(O)no3)cc2)c1 [Example 42, 5-[4-[[3-[2,6-dimethyl-4-(3-methylsulfonylpropoxy)phenyl]phenyl]methoxy]phenyl]-1,2-oxazol-3-ol] | < 300 |
| COc1ncccc1-c1cccc2c1CCC2Oc1ccc(-c2cc(O)no2)cc1 (stereo not drawn) [Example 23, 5-(4-(2,3-dihydro-4-(2-methoxypyridin-3-yl)-1H-inden-1-yloxy)phenyl)isoxazol-3-ol] | < 300 |
| Cc1cc(OCCC(C)(C)O)nc(C)c1-c1cccc2c1CCC2Oc1ccc(-c2cc(O)no2)cc1 (stereo not drawn) [Example 24, 5-(4-(4-(6-(3-hydroxy-3-methylbutoxy)-2,4-dimethylpyridin-3-yl)-2,3-dihydro-1H-inden-1-yloxy)phenyl)isoxazol-3-ol] | < 300 |
| Cc1cc(OCCC(C)(C)O)cc(C)c1-c1cccc2c1CCC2Oc1ccc(-c2cc(O)no2)cc1 (stereo not drawn) [Example 37, 5-[4-[[4-[4-(3-hydroxy-3-methylbutoxy)-2,6-dimethylphenyl]-2,3-dihydro-1H-inden-1-yl]oxy]phenyl]-1,2-oxazol-3-ol] | < 300 |
| Cc1cc(OC[C@H](O)CO)cc(C)c1-c1cccc(COc2ccc(-c3cc(O)no3)cc2)c1C [Example 44, (2R)-3-[4-[3-[[4-(3-hydroxy-1,2-oxazol-5-yl)phenoxy]methyl]-2-methylphenyl]-3,5-dimethylphenoxy]propane-1,2-diol] | < 300 |
| Cc1cc(OCCC(C)(C)O)nc(C)c1-c1cccc(COc2ccc(-c3cc(O)no3)cc2)c1 [Example 41, 5-(4-((3-(2,4-dimethyl-6-(3-hydroxy-3-methylbutoxy)pyridin-3-yl)phenyl)methoxy)phenyl)isoxazol-3-ol] | < 300 |
| Cc1cc(OCCCN2CCCC2=O)cc(C)c1-c1cccc(COc2ccc(-c3cc(O)no3)cc2)c1 [Example 43, 1-[3-[4-[3-[[4-(3-hydroxy-1,2-oxazol-5-yl)phenoxy]methyl]phenyl]-3,5-dimethylphenoxy]propyl]pyrrolidin-2-one] | < 300 |
| Cc1cc(-c2cccc(COc3ccc(-c4cc(O)no4)cc3)c2C)c(C)nc1OCCC(C)(C)O [Example 47, 5-[4-[[3-[6-(3-hydroxy-3-methylbutoxy)-2,5-dimethylpyridin-3-yl]-2-methylphenyl]methoxy]phenyl]-1,2-oxazol-3-ol] | < 300 |

Second part, the compound after the results:

| EC50 [nM] | Compound |
| --- | --- |
| 300 to 3000 | Oc1cc(-c2ccc(OC3CCc4cc(Br)ccc43)cc2)on1 (stereo not drawn) [Example 14, 5-(4-(5-bromo-2,3-dihydro-1H-inden-1-yloxy)phenyl)isoxazol-3-ol] |
| 300 to 3000 | Oc1cc(-c2ccc(NC3CCc4cc(Cl)ccc43)cc2)on1 (stereo not drawn) [Example 31, 5-(4-(5-chloro-2,3-dihydro-1H-inden-1-ylamino)phenyl)isoxazol-3-ol] |
| < 300 | Oc1cc(-c2ccc(OC3CCc4c(Oc5ccccc5)cccc43)cc2)on1 (stereo not drawn) [Example 26, 5-(4-(2,3-dihydro-4-phenoxy-1H-inden-1-yloxy)phenyl)isoxazol-3-ol] |
| < 300 | Oc1cc(-c2ccc(OC3Cc4ccccc4C3)cc2)on1 [Example 2, 5-(4-(2,3-dihydro-1H-inden-2-yloxy)phenyl)isoxazol-3-ol] |
| < 300 | Oc1cc(-c2ccc(OC3CCc4c(Cc5ccccc5)cccc43)cc2)on1 (stereo not drawn) [Example 30, 5-(4-(4-benzyl-2,3-dihydro-1H-inden-1-yloxy)phenyl)isoxazol-3-ol] |
| 300 to 3000 | Oc1cc(-c2ccc(OC3CCc4c3ccc(Cl)c4Cl)cc2)on1 (stereo not drawn) [Example 19, 5-(4-(4,5-dichloro-2,3-dihydro-1H-inden-1-yloxy)phenyl)isoxazol-3-ol] |
| 300 to 3000 | N#Cc1cccc2c1CCC2Oc1ccc(-c2cc(O)no2)cc1 (stereo not drawn) [Example 12, 5-(4-(4-cyano-2,3-dihydro-1H-inden-1-yloxy)phenyl)isoxazol-3-ol] |
| 300 to 3000 | Oc1cc(-c2ccc(OC3CCc4cc(Cl)ccc43)cc2)on1 (stereo not drawn) [Example 13, 5-(4-(5-chloro-2,3-dihydro-1H-inden-1-yloxy)phenyl)isoxazol-3-ol] |
| < 300 | Oc1cc(-c2ccc(OC3CCc4c(Cl)cccc43)cc2)on1 (stereo not drawn) [Example 11, 5-(4-(4-chloro-2,3-dihydro-1H-inden-1-yloxy)phenyl)isoxazol-3-ol] |
| < 300 | COc1cccc(-c2cccc3c2CCC3Oc2ccc(-c3cc(O)no3)cc2)c1 (stereo not drawn) [Example 21, 5-(4-(2,3-dihydro-4-(3-methoxyphenyl)-1H-inden-1-yloxy)phenyl)isoxazol-3-ol] |
